# Target: T1, Acetolactate synthase, chloroplastic (Arabidopsis thaliana, UniProt P17597)
# T1 sequence (P17597 whole entry): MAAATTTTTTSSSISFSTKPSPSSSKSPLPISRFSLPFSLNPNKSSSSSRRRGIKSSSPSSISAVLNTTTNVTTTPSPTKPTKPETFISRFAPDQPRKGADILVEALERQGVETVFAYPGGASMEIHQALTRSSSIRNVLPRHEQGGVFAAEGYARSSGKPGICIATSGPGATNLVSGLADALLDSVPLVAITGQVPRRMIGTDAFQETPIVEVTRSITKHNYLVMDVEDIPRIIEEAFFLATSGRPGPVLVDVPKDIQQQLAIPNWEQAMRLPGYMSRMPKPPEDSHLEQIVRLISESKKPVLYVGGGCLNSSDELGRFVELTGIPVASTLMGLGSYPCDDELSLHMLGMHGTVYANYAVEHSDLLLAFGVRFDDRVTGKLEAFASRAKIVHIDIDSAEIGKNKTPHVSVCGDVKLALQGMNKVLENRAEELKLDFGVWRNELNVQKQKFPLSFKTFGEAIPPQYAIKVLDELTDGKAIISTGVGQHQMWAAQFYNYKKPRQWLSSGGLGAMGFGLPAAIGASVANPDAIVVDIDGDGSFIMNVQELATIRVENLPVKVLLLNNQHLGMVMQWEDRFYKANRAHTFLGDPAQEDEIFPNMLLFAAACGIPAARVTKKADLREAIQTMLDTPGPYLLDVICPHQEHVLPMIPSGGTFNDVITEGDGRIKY
# Test: Inhibitory activity against Acetolactate synthase (ALS) enzyme by using the rape-root growth method
# Conditions: not given
row,SMILES,IC50
1,Cc1cccc(C(=O)OCn2ccc(=O)[nH]c2=O)c1,16.04 p.p.m.
2,COc1cc(Cl)nc(NS(=O)(=O)c2ccc(F)cc2)n1,0.000111 M l-1
3,Cc1ccnc(NS(=O)(=O)c2ccccc2[N+](=O)[O-])n1,0.000287 M l-1
4,COc1ccc(C(=O)OCn2ccc(=O)[nH]c2=O)cc1,> 100 p.p.m.
5,Cc1ccc(NS(=O)(=O)c2ccc(F)cc2)nc1,0.000152 M l-1
6,O=C(OCn1ccc(=O)[nH]c1=O)c1ccc(Cl)cc1,51.29 p.p.m.
7,O=C(OCn1ccc(=O)[nH]c1=O)c1ccc(Br)cc1,55.38 p.p.m.
8,O=C(OCn1ccc(=O)[nH]c1=O)c1c(Cl)cc(C(F)(F)F)cc1Cl,> 100 p.p.m.
9,Cc1cnc(NS(=O)(=O)c2cc(Cl)ccc2Cl)s1,> 0.000309 M l-1
10,O=C(OCn1ccc(=O)[nH]c1=O)c1ccccc1,55.36 p.p.m.
11,COc1ccccc1C(=O)OCn1ccc(=O)[nH]c1=O,> 100 p.p.m.
12,O=C(OCn1ccc(=O)[nH]c1=O)c1ccc([N+](=O)[O-])cc1,> 100 p.p.m.
13,O=C(OCn1ccc(=O)[nH]c1=O)c1ccc(F)cc1,55.86 p.p.m.
14,O=C(OCn1ccc(=O)[nH]c1=O)c1ccc(I)cc1,> 100 p.p.m.

# Same assay, conditions: read-out: IC50
row,SMILES,IC50 [µM]
1,O=S(=O)(Nc1nccs1)c1cc(Cl)ccc1Cl,84.7
2,Cc1ccnc(NS(=O)(=O)c2ccc(Br)cc2)n1,58.9
3,Cc1ccnc(NS(=O)(=O)c2ccc(F)cc2)n1,38.9
4,Cc1ccnc(NS(=O)(=O)c2cc(Cl)ccc2Cl)n1,97.2
5,Cc1cc(C)nc(NS(=O)(=O)c2cc(Cl)ccc2Cl)n1,33

# Reference: ChEMBL document CHEMBL1131784, “The design and synthesis of ALS inhibitors from pharmacophore models” (Bioorg Med Chem Lett, 1999)
